Consider four compounds from US20260355180A1, “COMPOSITIONS AND METHODS FOR SPLICEOSOME-TARGETED THERAPIES” (Institute for Cancer Research d/b/a The Research Institute …, priority 2022, published 2026).

Experiment [1] deals with H446 cells. As to the kind of experiment: Immunofluorescence of A-RNA (J2) and Z-NA (Z22), H446. The experiment is classed as cell-based, human. As to conditions: low dose. The source says: FIG. 4A-4C: SF3B1 perturbation increases dsRNA and Z-nucleic acid levels in treated cells. […] (FIG. 4B) Quantification of A-RNA and Z-Nucleic acids. (FIG. 4C) Western blot showing induction of cleaved-PARP, pH2AX, and ZBP1, and the reduction of RIPK1 protein levels. Plots of signal intensity are mean±SEM, two-tailed unpaired Student's t test **p<0.01, ****p<0.0001.
Our observations led us to explore what caused the elevated IFN response. We used an immunofluorescence (IF) technique to determine if A-RNA was increased after PlaB treatment.

The subject of experiment [2] is ZBP1 reconstituted MEF. Nature of the experiment: Rescue of PlaB-mediated cell death by RIPK3 inhibitor. The settings on record: 2.5 nM PlaB, 18 hours, with RIPK3 inhibitor. The experiment is classed as cell-based, mouse. Here is the method: FIG. 5A-5E: SF3B1 perturbation upregulates A-RNA and Z-nucleic acids in MEFs. (FIG. 5A) 5 nM of PlaB induces A-RNA and Z-Nucleic acids in ΔZBP1 MEF cells. (FIG. 5B) Quantification of A-RNA and Z-Nucleic acids. […] Plots of signal intensity are mean±SEM, two-tailed unpaired Student's t test *p<0.05, ***p<0.001, ****p<0.0001. 18 hours of PlaB treatment for IF, WB and rescue experiments. IF: 5 nM PlaB, WB and rescue experiments: 2.5 nM PlaB.
Since induction of Z-nAs can result in ZBP1-dependent necroptosis, we analyzed induction of necroptosis in necroptotic competent MEFs using spliceosome inhibition. […] We also determined that MEFs ΔZBP1, WT, and Flag-ZBP1 cells treated with PlaB began dying within 24hours after treatment. With MEF Flag-ZBP1 cells showing only 20% survival after 24 hours (FIG. 16).

Experiment [3] concerns H446 cells. As to the kind of experiment: Restoration of cell survival by RIPK1 or caspase inhibition, H446. The experiment is classed as cell-based, human. As to conditions: H446 treated with PlaB plus inhibitor. Here is the method: (§1) FIG. 8A-8B: Spliceosome Perturbation induces RIPK1-dependent apoptosis. (FIG. 8A) H82 and H446 cells were treated with PlaB, PlaB+Z-vad, PlaB+R3i, and PlaB+Z-Vad+R3i. H82 and H446 cells were treated with PlaB, PlaB+Z-vad, and PlaB+Necl.
(§2) In addition, our CRISPR-Cas9 KO of RIPK1 also rescues SCLC cell lines from PlaB induced toxicity.

Experiment [4] concerns H82 cells. Nature of the experiment: Restoration of cell survival by RIPK1 or caspase inhibition, H82. The experiment is classed as cell-based. The settings on record: H82 treated with PlaB plus inhibitor. Here is the method:
as §1, §2

“Also recorded” adds a separate entry of the source. Residues, ends and D or L forms follow the SMILES beside them. *: point of attachment. Cbz = O=C(OCc1ccccc1)*; CH2F = FC*

With `NS(=O)(=O)c1ccc(S(=O)(=O)Nc2cccc3c(Cl)c[nH]c23)cc1` [indisulam], in experiment [1] (J2 antibody), the “accumulation of A-RNA” value was “induces accumulation”. For the same compound, the “accumulation of Z-Nucleic acids” value in experiment [1] (Z22 antibody) is “induces accumulation”.
For `Cc1cc(-c2cnc(N)c3c(-c4ccc5scnc5c4)csc23)n(C)n1` [GSK-843], the “rescue of PlaB-mediated cell death (necroptosis)” value in experiment [2] is listed as “completely rescued; also recorded: successfully rescue”.
As for `CN1C(=O)C(Cc2c[nH]c3ccccc23)NC1=S` (stereo not shown) [Nec-I, necrostatin I], the cell survival entry in experiment [3] and in experiment [4] was “significantly restore cell survival” throughout.
For `COC(=O)C[C@H](NC(=O)[C@H](C)NC(=O)[C@@H](NC(=O)OCc1ccccc1)C(C)C)C(=O)CF` [Z-Vad FMK] (Cbz-Val-Ala-Asp(OMe)-CH2F), the cell survival result in experiment [3] and in experiment [4] was “significantly restore cell survival” in each case.
